Reference: patent publication US20120165306A1, “PYRAZINYLPYRIDINES USEFUL FOR THE TREATMENT OF PROLIFERATIVE DISEASES” (priority 2009, published 2012)

Target: Cdk9/cyclinT1 (Homo sapiens, UniProt P50750)
Assay: Cdk9/cyclinT1 kinase assay (IMAP or Alpha Screen protocol)

Sequence of Cdk9/cyclinT1 (P50750 whole entry): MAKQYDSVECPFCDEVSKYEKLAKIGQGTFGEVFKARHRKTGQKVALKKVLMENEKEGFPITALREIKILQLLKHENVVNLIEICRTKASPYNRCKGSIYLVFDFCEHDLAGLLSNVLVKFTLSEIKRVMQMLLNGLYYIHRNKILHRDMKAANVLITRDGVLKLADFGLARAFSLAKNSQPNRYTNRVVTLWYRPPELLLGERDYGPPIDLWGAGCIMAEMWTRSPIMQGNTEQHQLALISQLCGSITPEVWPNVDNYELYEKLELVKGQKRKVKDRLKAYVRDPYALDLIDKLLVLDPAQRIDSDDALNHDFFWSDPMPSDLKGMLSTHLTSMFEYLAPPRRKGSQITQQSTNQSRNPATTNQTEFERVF
Sequence of Cdk9/cyclinT1 (O60563 whole entry partner): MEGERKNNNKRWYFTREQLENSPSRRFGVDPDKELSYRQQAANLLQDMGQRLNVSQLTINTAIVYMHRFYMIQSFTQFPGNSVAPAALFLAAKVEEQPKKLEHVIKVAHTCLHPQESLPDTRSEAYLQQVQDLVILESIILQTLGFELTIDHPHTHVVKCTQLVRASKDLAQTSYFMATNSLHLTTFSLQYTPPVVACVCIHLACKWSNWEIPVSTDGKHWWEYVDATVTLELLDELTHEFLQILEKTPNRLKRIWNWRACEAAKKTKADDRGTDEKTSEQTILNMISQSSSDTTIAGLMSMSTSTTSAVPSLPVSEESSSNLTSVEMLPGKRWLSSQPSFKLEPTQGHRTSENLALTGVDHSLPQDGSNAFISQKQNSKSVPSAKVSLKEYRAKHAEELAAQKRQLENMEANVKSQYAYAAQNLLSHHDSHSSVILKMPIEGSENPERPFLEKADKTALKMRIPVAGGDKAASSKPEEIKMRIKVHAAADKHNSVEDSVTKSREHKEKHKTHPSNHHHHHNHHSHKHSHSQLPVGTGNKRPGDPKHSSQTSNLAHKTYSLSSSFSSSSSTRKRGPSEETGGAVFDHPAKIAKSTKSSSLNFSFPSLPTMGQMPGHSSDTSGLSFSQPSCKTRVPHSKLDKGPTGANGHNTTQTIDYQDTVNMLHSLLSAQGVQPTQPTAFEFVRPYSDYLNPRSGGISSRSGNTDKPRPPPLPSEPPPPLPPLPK

Compound | IC50
C[C@@H](Nc1cncc(-c2cc(NC(=O)[C@@H]3CCCNC3)ncc2Cl)n1)C1CCCCC1 [Example 37, (R)-Piperidine-3-carboxylic acid {5-chloro-4-[6-((R)-1-cyclohexyl-ethylamino)-pyrazin-2-yl]-pyridin-2-yl}-amide] | < 8 nM
O=C(Nc1cc(-c2cncc(Cl)n2)c(Cl)cn1)[C@@H]1CCCNC1 [Example 38, (R)-Piperidine-3-carboxylic acid [5-chloro-4-(6-chloro-pyrazin-2-yl)-pyridin-2-yl]-amide] | 1400 nM
O=C(Nc1cc(-c2cncc(NCC3CC3)n2)c(Cl)cn1)[C@@H]1CCCNC1 [Example 39, (R)-Piperidine-3-carboxylic acid {5-chloro-4-[6-(cyclopropylmethyl-amino)-pyrazin-2-yl]-pyridin-2-yl}-amide] | 17 nM
O=C(Nc1cc(-c2cncc(NCC3CCOCC3)n2)c(Cl)cn1)[C@@H]1CCCN1 [Example 40, (S)-Pyrrolidine-2-carboxylic acid (5-chloro-4-{6-[(tetrahydro-pyran-4-ylmethyl)-amino]-pyrazin-2-yl}-pyridin-2-yl)-amide] | 37 nM
CCS(=O)(=O)N1CCC[C@H](C(=O)Nc2cc(-c3cncc(NCC4CCOCC4)n3)c(Cl)cn2)C1 [Example 45, (S)-1-Ethanesulfonyl-piperidine-3-carboxylic acid (5-chloro-4-{6-[(tetrahydro-pyran-4-ylmethyl)-amino]-pyrazin-2-yl}-pyridin-2-yl)-amide] | < 8 nM
CC(C)OC(=O)N1CCC[C@H](C(=O)Nc2cc(-c3cncc(NCC4CCOCC4)n3)c(Cl)cn2)C1 [Example 46, (S)-3-(5-Chloro-4-{6-[(tetrahydro-pyran-4-ylmethyl)-amino]-pyrazin-2-yl}-pyridin-2-ylcarbamoyl)-piperidine-1-carboxylic acid isopropyl ester] | < 8 nM
COCC(=O)N1CCC[C@H](C(=O)Nc2cc(-c3cncc(NCC4CCOCC4)n3)c(Cl)cn2)C1 [Example 47, (S)-1-(2-Methoxy-acetyl)-piperidine-3-carboxylic acid (5-chloro-4-{6-[(tetrahydro-pyran-4-ylmethyl)-amino]-pyrazin-2-yl}-pyridin-2-yl)-amide] | < 8 nM
CC(=O)N1CCC[C@H](C(=O)Nc2cc(-c3cncc(NCC4CCOCC4)n3)c(Cl)cn2)C1 [Example 48, (S)-1-Acetyl-piperidine-3-carboxylic acid (5-chloro-4-{6-[(tetrahydro-pyran-4-ylmethyl)-amino]-pyrazin-2-yl}-pyridin-2-yl)-amide] | < 8 nM
CS(=O)(=O)N[C@H]1CC[C@@H](C(=O)Nc2cc(-c3cncc(NCC4CCOCC4)n3)c(Cl)cn2)C1 [Example 51, (1R,3S)-3-Methanesulfonylamino-cyclopentanecarboxylic acid (5-chloro-4-{6-[(tetrahydro-pyran-4-ylmethyl)-amino]-pyrazin-2-yl}-pyridin-2-yl)-amide] | < 8 nM
COC(=O)N[C@@H]1CC[C@@H](C(=O)Nc2cc(-c3cncc(NCC4CCOCC4)n3)c(Cl)cn2)C1 [Example 55, [(1R,3R)-3-(5-Chloro-4-{6-[(tetrahydro-pyran-4-ylmethyl)-amino]-pyrazin-2-yl}-pyridin-2-ylcarbamoyl)-cyclopentyl]-carbamic acid methyl ester] | < 8 nM
CC(C)C(=O)Nc1cc(-c2cncc(NCC3CCOCC3)n2)c(C(F)(F)F)cn1 [Example 58, N-(4-{6-[(Tetrahydro-pyran-4-ylmethyl)-amino]-pyrazin-2-yl}-5-trifluoromethyl-pyridin-2-yl)-isobutyramide] | 146 nM
Cc1cnc(NC(=O)C(C)C)cc1-c1cncc(NCC2CCOCC2)n1 [Example 60, N-(5-Methyl-4-{6-[(tetrahydro-pyran-4-ylmethyl)-amino]-pyrazin-2-yl}-pyridin-2-yl)-isobutyramide] | 73 nM
O=C(Nc1cc(-c2cncc(N[C@@H]3CC34CCOCC4)n2)c(Cl)cn1)[C@@H]1CCCNC1 [Example 63, (R)-Piperidine-3-carboxylic acid (5-chloro-4-{6-[(R)-(6-oxa-spiro[2.5]oct-1-yl)amino]-pyrazin-2-yl}-pyridin-2-yl)-amide] | 47 nM
O=C(Nc1cc(-c2cncc(NCC3CCOCC3)n2)c(Cl)cn1)[C@H]1CNC[C@H]1F [Example 64, (3R,4S)-4-Fluoro-pyrrolidine-3-carboxylic acid (5-chloro-4-{6-[(tetrahydro-pyran-4-ylmethyl)-amino]-pyrazin-2-yl}-pyridin-2-yl)-amide] | < 8 nM
CS(=O)(=O)N1CCC[C@H](C(=O)Nc2cc(-c3cncc(NCC4CCOCC4)n3)c(C(F)(F)F)cn2)C1 [Example 65, (S)-1-Methanesulfonyl-piperidine-3-carboxylic acid (4-{6-[(tetrahydro-pyran-4-ylmethyl)-amino]-pyrazin-2-yl}-5-trifluoromethyl-pyridin-2-yl)-amide] | 103 nM

More lines, now with the values ahead:

IC50 | Compound
< 8 nM | C[C@H](Nc1cncc(-c2cc(NC(=O)[C@@H]3CCCNC3)ncc2Cl)n1)C1CCCCC1 [Example 36, (R)-Piperidine-3-carboxylic acid {5-chloro-4-[6-((S)-1-cyclohexyl-ethylamino)-pyrazin-2-yl]-pyridin-2-yl}-amide]
< 8 nM | O=C(Nc1cc(-c2cncc(NCC3CCOCC3)n2)c(Cl)cn1)[C@@H]1CCNC1 [Example 41, (R)-Pyrrolidine-3-carboxylic acid (5-chloro-4-{6-[(tetrahydro-pyran-4-ylmethyl)-amino]-pyrazin-2-yl}-pyridin-2-yl)-amide]
25 nM | N[C@@H]1CC[C@H](C(=O)Nc2cc(-c3cncc(NCC4CCOCC4)n3)c(Cl)cn2)C1 [Example 42, (1S,3R)-3-Amino-cyclopentanecarboxylic acid (5-chloro-4-{6-[(tetrahydro-pyran-4-ylmethyl)-amino]-pyrazin-2-yl}-pyridin-2-yl)-amide]
< 8 nM | N[C@H]1CC[C@@H](C(=O)Nc2cc(-c3cncc(NCC4CCOCC4)n3)c(Cl)cn2)C1 [Example 43, (1R,3S)-3-Amino-cyclopentanecarboxylic acid (5-chloro-4-{6-[(tetrahydro-pyran-4-ylmethyl)-amino]-pyrazin-2-yl}-pyridin-2-yl)-amide]
< 8 nM | N[C@@H]1CC[C@@H](C(=O)Nc2cc(-c3cncc(NCC4CCOCC4)n3)c(Cl)cn2)C1 [Example 44, (1R,3R)-3-Amino-cyclopentanecarboxylic acid (5-chloro-4-{6-[(tetrahydro-pyran-4-ylmethyl)-amino]-pyrazin-2-yl}-pyridin-2-yl)-amide]
< 8 nM | COC(=O)N1CCC[C@H](C(=O)Nc2cc(-c3cncc(NCC4CCOCC4)n3)c(Cl)cn2)C1 [Example 49, (S)-3-(5-Chloro-4-{6-[(tetrahydro-pyran-4-ylmethyl)-amino]-pyrazin-2-yl}-pyridin-2-ylcarbamoyl)-piperidine-1-carboxylic acid methyl ester]
< 8 nM | CS(=O)(=O)N[C@@H]1CC[C@H](C(=O)Nc2cc(-c3cncc(NCC4CCOCC4)n3)c(Cl)cn2)C1 [Example 50, (1S,3R)-3-Methanesulfonylamino-cyclopentanecarboxylic acid (5-chloro-4-{6-[(tetrahydro-pyran-4-ylmethyl)-amino]-pyrazin-2-yl}-pyridin-2-yl)-amide]
< 8 nM | CS(=O)(=O)N[C@@H]1CC[C@@H](C(=O)Nc2cc(-c3cncc(NCC4CCOCC4)n3)c(Cl)cn2)C1 [Example 52, (1R,3R)-3-Methanesulfonylamino-cyclopentanecarboxylic acid (5-chloro-4-{6-[(tetrahydro-pyran-4-ylmethyl)-amino]-pyrazin-2-yl}-pyridin-2-yl)-amide]
< 8 nM | COC(=O)N[C@@H]1CC[C@H](C(=O)Nc2cc(-c3cncc(NCC4CCOCC4)n3)c(Cl)cn2)C1 [Example 53, [(1R,3S)-3-(5-Chloro-4-{6-[(tetrahydro-pyran-4-ylmethyl)-amino]-pyrazin-2-yl}-pyridin-2-ylcarbamoyl)-cyclopentyl]-carbamic acid methyl ester]
< 8 nM | COC(=O)N[C@H]1CC[C@@H](C(=O)Nc2cc(-c3cncc(NCC4CCOCC4)n3)c(Cl)cn2)C1 [Example 54, [(1S,3R)-3-(5-Chloro-4-{6-[(tetrahydro-pyran-4-ylmethyl)-amino]-pyrazin-2-yl}-pyridin-2-ylcarbamoyl)-cyclopentyl]-carbamic acid methyl ester]
< 8 nM | CC(C)S(=O)(=O)N1CCC[C@H](C(=O)Nc2cc(-c3cncc(NCC4CCOCC4)n3)c(Cl)cn2)C1 [Example 56, (S)-1-(Propane-2-sulfonyl)-piperidine-3-carboxylic acid (5-chloro-4-{6-[(tetrahydro-pyran-4-ylmethyl)-amino]-pyrazin-2-yl}-pyridin-2-yl)-amide]
< 8 nM | O=C(Cc1cccnc1)Nc1cc(-c2cncc(NCC3CCOCC3)n2)c(Cl)cn1 [Example 57, N-(5-Chloro-4-{6-[(tetrahydro-pyran-4-ylmethyl)-amino]-pyrazin-2-yl}-pyridin-2-yl)-2-pyridin-3-yl-acetamide]
1010 nM | O=C(Nc1cc(-c2cncc(NCC3CCOCC3)n2)c(C(F)(F)F)cn1)C1CCOCC1 [Example 59, Tetrahydro-pyran-4-carboxylic acid (4-{6-[(tetrahydro-pyran-4-ylmethyl)-amino]-pyrazin-2-yl}-5-trifluoromethyl-pyridin-2-yl)-amide]
130 nM | O=C(Nc1cc(-c2cncc(NCC3CCOCC3)n2)c(C(F)(F)F)cn1)[C@@H]1CCCNC1 [Example 61, (R)-Piperidine-3-carboxylic acid (4-{6-[(tetrahydro-pyran-4-ylmethyl)-amino]-pyrazin-2-yl}-5-trifluoromethyl-pyridin-2-yl)-amide]
40 nM | N[C@H]1CC[C@@H](C(=O)Nc2cc(-c3cncc(NCC4CCOCC4)n3)c(C(F)(F)F)cn2)C1 [Example 62, (1R,3S)-3-Amino-cyclopentanecarboxylic acid (4-{6-[(tetrahydro-pyran-4-ylmethyl)-amino]-pyrazin-2-yl}-5-trifluoromethyl-pyridin-2-yl)-amide]
